Assay results taken from patent US9993494B2, “Compositions and methods for treating fibrotic disease” (eFFECTOR Therapeutics, Inc., priority 2014, dated 2018).

System: normal human lung fibroblasts
Assay: Ribosomal profiling: translational efficiency in TGFβ-treated fibroblasts
Format: cell-based
Settings: TGFβ-treated fibroblasts
Experimental: Ribosomal profiling allows for measurement of changes in transcription and translation on a genome-wide basis accompanying TGFβ-dependent transformation of fibroblasts to myofibroblasts. Ribosomal profiles of the TGFβ-treated fibroblasts from Example 1 (about 6×10^6 cells/10 cm plate) were prepared and analyzed for changes in translational efficiencies with respect to potential disease-associated cellular changes accompanying this TGFβ-induced transformation.
Briefly, cells were washed with cold PBS supplemented with cycloheximide and lysed with 1× mammalian cell lysis buffer for 10 minutes on ice. Lysates were clarified by centrifugation for 10 minutes at 14,000 rpm and supernatants were collected. Cell lysates were processed to generate ribosomal protected fragments and total mRNA according to the instructions included with the ARTseq Ribosome Profiling Kit (Illumina, San Diego, Calif.). Sequencing of total RNA (RNA) and of ribosome-protected fragments of RNA (RPF) was carried out using RNA-Seq methodology according to the manufacturer's instructions (Illumina). To analyze the ribosomal profiles, RNA-Seq reads were processed with tools from the FASTX-Toolkit (fastq_quality_trimmer, fastx_clipper and fastx_trimmer). Unprocessed and processed reads were evaluated for a variety of quality measures using FastQC, and processed reads were mapped to the human genome using TopHat (see, e.g., Trapnell et al., Bioinformatics 25:1105, 2009). Gene-by-gene assessment of the number of fragments strictly and uniquely mapping to the coding region of each gene was conducted using HTSeq-count, a component of the HTSeq package. […] Genes with low counts in either RPF or RNA were excluded from differential analyses. Pathway and network analyses of differential data were conducted using Ingenuity Pathway Analysis (IPA).

CC(C=CC(=O)NO)=CC(C)C(=O)c1ccc(N(C)C)cc1 (stereo not drawn) [TSA, 7-[4-(dimethylamino)phenyl]-N-hydroxy-4,6-dimethyl-7-oxohepta-2,4-dienamide]
effect in renormalizing the translational profile of the gene (gene RPS6 (ENSG00000137154)): − (− = <0.9) | effect in renormalizing the translational profile of the gene (gene RPS6KA5 (ENSG00000100784)): − (− = <0.9) | effect in renormalizing the translational profile of the gene (gene RPS7 (ENSG00000171863)): − (− = <0.9) | effect in renormalizing the translational profile of the gene (gene RPS8 (ENSG00000142937)): − (− = <0.9) | effect in renormalizing the translational profile of the gene (gene RPS9 (ENSG00000170889)): − (− = <0.9) | effect in renormalizing the translational profile of the gene (gene RPS10 (ENSG00000124614)): − (− = <0.9) | effect in renormalizing the translational profile of the gene (gene RPS11 (ENSG00000142534)): − (− = <0.9) | effect in renormalizing the translational profile of the gene (gene RPS12 (ENSG00000112306)): − (− = <0.9) | effect in renormalizing the translational profile of the gene (gene RPS13 (ENSG00000110700)): − (− = <0.9) | effect in renormalizing the translational profile of the gene (gene RPS14 (ENSG00000164587)): − (− = <0.9) | effect in renormalizing the translational profile of the gene (gene RPS15 (ENSG00000115268)): − (− = <0.9) | effect in renormalizing the translational profile of the gene (gene RPS15A (ENSG00000134419)): − (− = <0.9) | effect in renormalizing the translational profile of the gene (gene RPS16 (ENSG00000105193)): − (− = <0.9) | effect in renormalizing the translational profile of the gene (gene RPS18 (ENSG00000231500)): − (− = <0.9) | effect in renormalizing the translational profile of the gene (gene RPS19 (ENSG00000105372)): − (− = <0.9) | effect in renormalizing the translational profile of the gene (gene RPS20 (ENSG00000008988)): − (− = <0.9) | effect in renormalizing the translational profile of the gene (gene RPS21 (ENSG00000171858)): − (− = <0.9) | effect in renormalizing the translational profile of the gene (gene RPS23 (ENSG00000186468)): − (− = <0.9) | effect in renormalizing the translational profile of the gene (gene RPS24 (ENSG00000138326)): − (− = <0.9) | effect in renormalizing the translational profile of the gene (gene RPS25 (ENSG00000118181)): − (− = <0.9) | effect in renormalizing the translational profile of the gene (gene RPS26 (ENSG00000197728)): − (− = <0.9) | effect in renormalizing the translational profile of the gene (gene RPS27 (ENSG00000177954)): − (− = <0.9) | effect in renormalizing the translational profile of the gene (gene RPS27A (ENSG00000143947)): − (− = <0.9) | effect in renormalizing the translational profile of the gene (gene RPS28 (ENSG00000233927)): − (− = <0.9) | effect in renormalizing the translational profile of the gene (gene RPS29 (ENSG00000213741)): − (− = <0.9) | effect in renormalizing the translational profile of the gene (gene RPSA (ENSG00000168028)): − (− = <0.9) | effect in renormalizing the translational profile of the gene (gene RTN2 (ENSG00000125744)): − (− = <0.9) | effect in renormalizing the translational profile of the gene (gene SEMA3A (ENSG00000075213)): − (− = <0.9) | effect in renormalizing the translational profile of the gene (gene SGIP1 (ENSG00000118473)): − (− = <0.9) | effect in renormalizing the translational profile of the gene (gene SH3BGR (ENSG00000185437)): − (− = <0.9) | effect in renormalizing the translational profile of the gene (gene SHC3 (ENSG00000148082)): + (+ = 0.9 to 1.5) | effect in renormalizing the translational profile of the gene (gene SLC2A12 (ENSG00000146411)): − (− = <0.9) | effect in renormalizing the translational profile of the gene (gene SLC7A7 (ENSG00000155465)): − (− = <0.9) | effect in renormalizing the translational profile of the gene (gene SLC15A3 (ENSG00000110446)): ++ (++ = 1.5 to 2.0) | effect in renormalizing the translational profile of the gene (gene SLC25A6 (ENSG00000169100)): − (− = <0.9) | effect in renormalizing the translational profile of the gene (gene SLC40A1 (ENSG00000138449)): + (+ = 0.9 to 1.5) | effect in renormalizing the translational profile of the gene (gene SMO (ENSG00000128602)): − (− = <0.9) | effect in renormalizing the translational profile of the gene (gene SNRPA (ENSG00000077312)): − (− = <0.9) | effect in renormalizing the translational profile of the gene (gene SOX5 (ENSG00000134532)): + (+ = 0.9 to 1.5) | effect in renormalizing the translational profile of the gene (gene SOX6 (ENSG00000110693)): − (− = <0.9) | effect in renormalizing the translational profile of the gene (gene SPATA6 (ENSG00000132122)): − (− = <0.9) | effect in renormalizing the translational profile of the gene (gene STAMBPL1 (ENSG00000138134)): + (+ = 0.9 to 1.5) | effect in renormalizing the translational profile of the gene (gene STS (ENSG00000101846)): − (− = <0.9) | effect in renormalizing the translational profile of the gene (gene SYNE2 (ENSG00000054654)): − (− = <0.9) | effect in renormalizing the translational profile of the gene (gene TAF1D (ENSG00000166012)): + (+ = 0.9 to 1.5) | effect in renormalizing the translational profile of the gene (gene TDG (ENSG00000139372)): − (− = <0.9) | effect in renormalizing the translational profile of the gene (gene TEN1 (ENSG00000257949)): − (− = <0.9) | effect in renormalizing the translational profile of the gene (gene TET2 (ENSG00000168769)): − (− = <0.9) | effect in renormalizing the translational profile of the gene (gene TET3 (ENSG00000187605)): − (− = <0.9) | effect in renormalizing the translational profile of the gene (gene TGFBI (ENSG00000120708)): − (− = <0.9) | effect in renormalizing the translational profile of the gene (gene THBS3 (ENSG00000169231)): − (− = <0.9) | effect in renormalizing the translational profile of the gene (gene THG1L (ENSG00000113272)): − (− = <0.9) | effect in renormalizing the translational profile of the gene (gene TIMM9 (ENSG00000100575)): − (− = <0.9) | effect in renormalizing the translational profile of the gene (gene TKT (ENSG00000163931)): − (− = <0.9) | effect in renormalizing the translational profile of the gene (gene TMTC1 (ENSG00000133687)): + (+ = 0.9 to 1.5) | effect in renormalizing the translational profile of the gene (gene TOMM7 (ENSG00000196683)): − (− = <0.9) | effect in renormalizing the translational profile of the gene (gene TOP2A (ENSG00000131747)): − (− = <0.9) | effect in renormalizing the translational profile of the gene (gene TPGS1 (ENSG00000141933)): − (− = <0.9) | effect in renormalizing the translational profile of the gene (gene TPM2 (ENSG00000198467)): − (− = <0.9) | effect in renormalizing the translational profile of the gene (gene TPT1 (ENSG00000133112)): − (− = <0.9) | effect in renormalizing the translational profile of the gene (gene TRERF1 (ENSG00000124496)): − (− = <0.9) | effect in renormalizing the translational profile of the gene (gene UBA52 (ENSG00000221983)): − (− = <0.9) | effect in renormalizing the translational profile of the gene (gene UQCRB (ENSG00000156467)): − (− = <0.9) | effect in renormalizing the translational profile of the gene (gene UTRN (ENSG00000152818)): − (− = <0.9) | effect in renormalizing the translational profile of the gene (gene VIM (ENSG00000026025)): − (− = <0.9) | effect in renormalizing the translational profile of the gene (gene ZNF581 (ENSG00000171425)): − (− = <0.9)
